One assay deals with P388. The assay can be described thus: In vivo antitumor activity against mouse P388 cells at 30 to 50 mg/kg, ip relative to control. The format is functional. To be noted: for T/C: dose mg/kg 30-50, route intraperitoneal.
The next assay concerns B16. Nature of the assay: Cytotoxicity against mouse B16 cells. The format is functional, cell-based.

Activity calls are given as the source filed them. No cut-off for these calls is given here.

Regarding `COc1cc2c(=O)n(C)c3c4cc5c(cc4ccc3c2cc1OC)OCO5`, the outcome with P388 was inactive.

What is called T/C is the ratio of treated to control. `COc1cc2c[n+](C)c3c4cc5c(cc4ccc3c2cc1OC)OCO5.[Cl-]` [NITIDINE CHLORIDE] showed a T/C in the assay on P388 of 240%. In addition, in the assay with B16, the result was inactive.

Turning to `COc1cc2c(cc1OC)-c1ccc3cc4c(cc3c1N(C)C2)OCO4`, the result in the assay with P388 was inactive.

In the assay with P388, `COc1cc2c(cc1OC)C(OC)N(C)c1c-2ccc2cc3c(cc12)OCO3` (stereo unspecified) registered a T/C of 240%.

`COc1cc2cnc3c4cc5c(cc4ccc3c2cc1OC)OCO5`: in the assay on P388, the result was inactive.

Source of the values: ChEMBL document CHEMBL1150738, “Plant antitumor agents, 27. Isolation, structure, and structure activity relationships of alkaloids from Fagara macrophylla” (1987).
